In patent US20220112204A1, “SUBSTITUTED DIHYDROPYRANOPYRIMIDINE COMPOUNDS AS KRAS INHIBITORS” (ACCUTAR BIOTECHNOLOGY INC., priority 2020, published 2022):

Experiments:
KRAS-G12C mutant [1] = molecular target: T1, KRAS-G12C mutant (Homo sapiens, UniProt P01116, G12C); test: Gel shift assay (SDS-PAGE) for covalent modification of KRAS G12C; assay type: binding; conditions: 0.5 μM compound, 1 μM GDP-bound KRAS G12C, 25° C., 5 minutes, shift indicative of covalent cysteine conjugation
Experimental: 0.5 μM compounds were incubated with 1 μM GDP-bound untagged KRAS (G12C or wild type) proteins at 25° C. for 5 minutes in 40 μl reaction buffer (50 mM Tris, pH 7.5, 100 mM NaCl, 1 mM MgCl2, 1 mM DTT). The reactions were quenched with 10 μI SDS-PAGE sample loading buffer (250 mM Tris-HCl, pH 6.8, 10% SDS, 0.5% bromophenol blue, 50% glycerol and 50 mM DTT) and then analyzed via SDS-PAGE using 4%-20% gradient polyacrylamide gel followed by Coomassie blue stain.
FIG. 1 illustrates mobility change of KRAS-G12C mutant or wild type proteins on SDS-PAGE after 5 minutes of coincubation at 25° C. with exemplary compounds of the present disclosure, indicative of covalent cysteine conjugation.
Table 3 summarizes molecular weight shift of KRAS-G12C mutant on SDS-PAGE after 5 mins of coincubation at 25° C. with exemplary compounds of the present disclosure, indicative of covalent cysteine conjugation.

KRAS-G12C mutant [2] = molecular target: T1, KRAS-G12C mutant; test: TR-FRET assay of SOS1-assisted KRAS GDP/GTP exchange; assay type: biochemical
Experimental: GDP form of 6*His tagged KRAS-G12C was diluted to 40 nM and incubated with 8 nM LanthaScreen™ Elite Terbium-anti-HIS Antibody (Thermo, catalog number PV5863) in reaction buffer containing 20 mM Tris, pH 7.5, 100 mM NaCl, 1 mM DTT, 0.1% Tween20, 0.05% BSA, 2% DMSO, 1 mM MgCl2. After 1 hour-incubation at 4° C., proteins were placed in 384 well plate (PerkinElmer, PROXIPLATE-384 PLUS). Then compounds with different concentrations were added to the proteins. BODIPY labeled GTP (Thermo, catalog number G12411) and SOS-1 (or reaction buffer as control) were then added to reactions at 200 nM and 1 μM to trigger the exchange of GDP to BODIPY-GTP. TR-FRET emission signals were determined at 520 nm and 620 nm on a Envision® Multilabel Plate Reader (PerkinElmer) using a 337 nm laser as light source. All data were analyzed and plotted using Graph Pad Prism software (version 8.0.1). Raw TR-FRET data were converted to percentage of inhibition (relative to DMSO) using the following equations: […]
b) For a given test compound concentration X:
Signal (X)=Emission ratio (SOS-1 & GTP)—Emission ratio (buffer & GTP)
c) Percentage of inhibition at concentration X=[1−Signal(X)/Signal (DMSO)]*100%
The […] values were determined by nonlinear regression of plots of [inhibitor] vs. percentage of inhibition with variable slope. Table 4 summarizes inhibition of SOS1-assisted GDP/GTP exchanging activity of KRAS-G12C mutant with exemplary compounds of the present disclosure.

[3] = system: phospho-ERK1/2 (Thr202/Tyr204) in MIA PaCa-2 cell line; test: pERK and ERK Western blot analysis, MIA PaCa-2; assay type: cell-based; conditions: Homo sapiens; MIA PaCa-2 cell line, 4 hours after incubation; read-out: 2D pERK IC50
Experimental: MIA PaCa-2 (ATCC), NCI-H358 (ATCC), NCI-H23 (ATCC), SW837 and A549 (ATCC) cells were plated in 24-well plates at 2×10^5cells/well in RPMI growth medium containing 10% FBS and 1× Penicillin Streptomycin. They were then incubated at 37° C. overnight. The following day, the test compound was administered to the cells by using 1000× compound stock solution prepared in DMSO at various concentrations. After administration of the compound, the cells were then incubated at 37° C. for 4 hours. Upon completion, the cells were washed with PBS and protein was collected in Laemmli sample buffer (1×; VWR International). Proteins in cell lysate were separated by SDS-PAGE and transferred to Odyssey nitrocellulose membranes (Licor) with iblot® dry blotting transfer system (ThermoFisher). Nonspecific binding was blocked by incubating membranes with Intercept Blocking Buffer (Licor) for 1 hour at room temperature with gentle shaking. The membranes were then incubated overnight at 4° C. with primary antibodies rabbit anti-phospho p44/42 MAPK (Erk1/2) (1:2,000, Cell Signaling, 4370) and mouse anti-p44/42 MAPK (Erk1/2) (1:1,000, Cell Signaling, 4696) diluted in Intercept Blocking Buffer containing 0.1% Tween 20. After washing 3 times with TBS-T, the membranes were incubated with IRDye® 800CW goat anti-rabbit IgG (1:20,000, Licor) or IRDye® 680CW goat anti-mouse IgG (1:20,000, Licor) for 1 hour. After TBS-T washes, membranes were rinsed in TBS and scanned on Odyssey® CLx Imaging System (Licor). The bands were quantified using Image Studio™ Software (Licor).

| Structure (SMILES) | KRAS-G12C molecular weight shift (KRAS-G12C mutant [1]) | IC50 (KRAS-G12C mutant [2]) | IC50 [3] |
| --- | --- | --- | --- |
| C=C(F)C(=O)N1CCN(c2nc(OCC34CCCN3CCC4)nc3c2CO[C@@H](c2cccc4cccc(C)c24)C3)C[C@@H]1CC#N (single isomer, unassigned) [Compound 57] | No | 4860 nM | > 100 nM |
| C=CC(=O)N1CCN(c2nc(OC[C@@H]3CCCN3C)nc3c2CO[C@@H](c2cccc4cccc(Cl)c24)C3)C[C@@H]1CC#N [Compound 6, 2-((S)-1-acryloyl-4-((R)-7-(8-chloronaphthalen-1-yl)-2-(((S)-1-methylpyrrolidin-2-yl)methoxy)-7,8-dihydro-5H-pyrano[4,3-d]pyrimidin-4-yl)piperazin-2-yl)acetonitrile] | – | 7130 nM | > 100 nM |
| C=CC(=O)N1CCN(c2nc(OC[C@@H]3C[C@H](F)CN3C)nc3c2CO[C@@H](c2cccc4ccccc24)C3)C[C@@H]1CC#N [Compound 10, 2-((S)-1-acryloyl-4-((R)-2-(((2S,4S)-4-fluoro-1-methylpyrrolidin-2-yl)methoxy)-7-(naphthalen-1-yl)-7,8-dihydro-5H-pyrano[4,3-d]pyrimidin-4-yl)piperazin-2-yl)acetonitrile] | – | 13900 nM | > 100 nM |
| C=C(F)C(=O)N1CCN(c2nc(OC[C@@H]3CCCN3C)nc3c2CO[C@@H](c2cccc4cccc(Cl)c24)C3)C[C@@H]1CC#N [Compound 19, 2-((S)-4-((R)-7-(8-chloronaphthalen-1-yl)-2-(((S)-1-methylpyrrolidin-2-yl)methoxy)-7,8-dihydro-5H-pyrano[4,3-d]pyrimidin-4-yl)-1-(2-fluoroacryloyl)piperazin-2-yl)acetonitrile] | No | 80800 nM | > 100 nM |
| C=C(F)C(=O)N1CCN(c2nc(OCC34CCCN3CCC4)nc3c2[C@@H](C)O[C@@H](c2cccc4c2CCCC4)C3)C[C@@H]1CC#N [Compound 60, 2-((S)-1-(2-fluoroacryloyl)-4-((5R,7R)-5-methyl-2-((tetrahydro-1H-pyrrolizin-7a(5H)-yl)methoxy)-7-(5,6,7,8-tetrahydronaphthalen-1-yl)-7,8-dihydro-5H-pyrano[4,3-d]pyrimidin-4-yl)piperazin-2-yl)acetonitrile] | No | 4200 nM | > 100 nM |
| C=C(F)C(=O)N1CCN(c2nc(OCC34CCCN3CCC4)nc3c2[C@@H](C)O[C@@H](c2cccc4cccc(C)c24)C3)C[C@@H]1CC#N [Compound 65, 2-((S)-1-(2-fluoroacryloyl)-4-((5R,7R)-5-methyl-7-(8-methylnaphthalen-1-yl)-2-((tetrahydro-1H-pyrrolizin-7a(5H)-yl)methoxy)-7,8-dihydro-5H-pyrano[4,3-d]pyrimidin-4-yl)piperazin-2-yl)acetonitrile] | No | 11600 nM | > 100 nM |

These reach a lower IC50 (KRAS-G12C mutant [2]). Values come first.

| KRAS-G12C molecular weight shift (KRAS-G12C mutant [1]) | IC50 (KRAS-G12C mutant [2]) | IC50 [3] | Structure (SMILES) |
| --- | --- | --- | --- |
| No | 2350 nM | > 100 nM | C=C(F)C(=O)N1CCN(c2nc(OCC34CCCN3CCC4)nc3c2CO[C@@H](c2cccc4cccc(Cl)c24)C3)C[C@@H]1CC#N (single isomer, unassigned) [Compound 54] |
| – | 698 nM | > 100 nM | C=C(F)C(=O)N1CCN(c2nc(OC[C@@H]3CCCN3C)nc3c2COC(c2cccc4ccccc24)C3)C[C@@H]1CC#N (stereo partly drawn) [Compound 1, 2-((2S)-1-(2-fluoroacryloyl)-4-(2-(((S)-1-methylpyrrolidin-2-yl)methoxy)-7-(naphthalen-1-yl)-7,8-dihydro-5H-pyrano[4,3-d]pyrimidin-4-yl)piperazin-2-yl)acetonitrile] |
| – | 29 nM | 1 to 10 nM | C=CC(=O)N1CCN(c2nc(OC[C@@H]3CCCN3C)nc3c2COC(c2cccc4cccc(Cl)c24)C3)C[C@@H]1CC#N (stereo partly drawn) [Compound 3, 2-((2S)-1-acryloyl-4-(7-(8-chloronaphthalen-1-yl)-2-(((S)-1-methylpyrrolidin-2-yl)methoxy)-7,8-dihydro-5H-pyrano[4,3-d]pyrimidin-4-yl)piperazin-2-yl)acetonitrile] |
| – | 2150 nM | > 100 nM | C=CC(=O)N1CCN(c2nc(OC[C@@H]3CCCN3C)nc3c2CO[C@@H](c2cccc4ccccc24)C3)C[C@@H]1CC#N [Compound 5, 2-((S)-1-acryloyl-4-((R)-2-(((S)-1-methylpyrrolidin-2-yl)methoxy)-7-(naphthalen-1-yl)-7,8-dihydro-5H-pyrano[4,3-d]pyrimidin-4-yl)piperazin-2-yl)acetonitrile] |
| Yes | 36 nM | 10 to 100 nM | C=C(F)C(=O)N1CCN(c2nc(OCC34CCCN3CCC4)nc3c2COC(c2cccc4c2CCCC4)C3)C[C@@H]1CC#N (stereo partly drawn) [Compound 67, 2-((2S)-1-(2-fluoroacryloyl)-4-(2-((tetrahydro-1H-pyrrolizin-7a(5H)-yl)methoxy)-7-(5,6,7,8-tetrahydronaphthalen-1-yl)-7,8-dihydro-5H-pyrano[4,3-d]pyrimidin-4-yl)piperazin-2-yl)acetonitrile] |
| No | 2540 nM | > 100 nM | C=C(F)C(=O)N1CCN(c2nc(OCC34CCCN3CCC4)nc3c2CO[C@@H](c2cccc4c2CCCC4)C3)C[C@@H]1CC#N [Compound 68, 2-((S)-1-(2-fluoroacryloyl)-4-((R)-2-((tetrahydro-1H-pyrrolizin-7a(5H)-yl)methoxy)-7-(5,6,7,8-tetrahydronaphthalen-1-yl)-7,8-dihydro-5H-pyrano[4,3-d]pyrimidin-4-yl)piperazin-2-yl)acetonitrile] |
| Yes | 303 nM | 10 to 100 nM | C=C(F)C(=O)N1CCN(c2nc(OCC3(CN(C)C)CC3)nc3c2COC(c2cccc4cccc(Cl)c24)C3)C[C@@H]1CC#N (stereo partly drawn) [Compound 70, 2-((2S)-4-(7-(8-chloronaphthalen-1-yl)-2-((1-((dimethylamino)methyl)cyclopropyl)methoxy)-7,8-dihydro-5H-pyrano[4,3-d]pyrimidin-4-yl)-1-(2-fluoroacryloyl)piperazin-2-yl)acetonitrile] |
